pIC50: −log10 of the molar value.
Target: T1, human P2X4 (Homo sapiens, UniProt Q99571)
T1 sequence (Q99571 1-388): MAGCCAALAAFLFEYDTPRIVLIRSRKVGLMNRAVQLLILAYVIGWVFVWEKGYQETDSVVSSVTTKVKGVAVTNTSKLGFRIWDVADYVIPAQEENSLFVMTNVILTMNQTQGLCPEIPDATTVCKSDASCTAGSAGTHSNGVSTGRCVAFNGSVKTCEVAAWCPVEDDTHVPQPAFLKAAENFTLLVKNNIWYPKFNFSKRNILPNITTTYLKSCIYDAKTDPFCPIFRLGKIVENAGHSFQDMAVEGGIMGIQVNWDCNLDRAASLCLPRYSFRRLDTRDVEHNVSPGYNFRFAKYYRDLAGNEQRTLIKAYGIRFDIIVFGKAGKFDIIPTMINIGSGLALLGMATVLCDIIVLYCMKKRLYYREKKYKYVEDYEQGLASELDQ
Assay: Human P2X4 HEK Cell FLIPR Assay
Assay type: cell-based
Settings: agonist Bz-ATP at EC80; for Emax: HEK293, HEK293 cells, percentage of maximal inhibition, read-out: Human P2X4 HEK Cells (FLIPR Assay) avg Efficacy [%]; for pIC50: HEK293 cells, individual values listed where some fall outside detection range
Summary of the method: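 Calcium flux read by FLIPR for 120 sec after Bz-ATP challenge at EC80 (established each assay day), following 30 min room-temperature compound preincubation in dye-loaded stable human P2X4 HEK293 cells. Peak RFU over basal normalized to agonist control; IC50, maximal inhibition and Hill coefficient from triplicate means.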

SMILES	Emax [%]	pIC50
NS(=O)(=O)c1cc(NC(=O)Cc2ccccc2Cl)ccc1-n1cc2cccnc2n1 [Example 253, 2-(2-Chlorophenyl)-N-[4-(2H-pyrazolo[3,4-b]pyridin-2-yl)-3-sulfamoylphenyl]-acetamide]	85	6.59
NS(=O)(=O)c1cc(NC(=O)Cc2ccccc2Cl)ccc1-n1cc2ccncc2n1 [Example 254, 2-(2-Chlorophenyl)-N-[4-(2H-pyrazolo[3,4-c]pyridin-2-yl)-3-sulfamoylphenyl]-acetamide]	102	7.39
NS(=O)(=O)c1cc(NC(=O)Cc2ccccc2Cl)ccc1-n1cc2ncccc2n1 [Example 255, 2-(2-Chlorophenyl)-N-[4-(2H-pyrazolo[4,3-b]pyridin-2-yl)-3-sulfamoylphenyl]-acetamide]	81	7.60
COCCc1cnn(-c2ccc(NC(=O)Cc3ccccc3Cl)cc2S(N)(=O)=O)c1 [Example 256, 2-(2-Chlorophenyl)-N-{4-[4-(2-methoxyethyl)-1H-pyrazol-1-yl]-3-sulfamoylphenyl}-acetamide]	83	6.89
NS(=O)(=O)c1cc(NC(=O)Cc2ccccc2Cl)ccc1-n1ccc(F)n1 [Example 257, 2-(2-Chlorophenyl)-N-[4-(3-fluoro-1H-pyrazol-1-yl)-3-sulfamoylphenyl]acetamide]	81	7.29
NS(=O)(=O)c1cc(NC(=O)Cc2ccccc2Cl)ccc1-n1cc(NCC(F)F)cn1 [Example 258, 2-(2-Chlorophenyl)-N-(4-{4-[(2,2-difluoroethyl)amino]-1H-pyrazol-1-yl}-3-sulfamoyl-phenyl)acetamide]	97	7.52
NS(=O)(=O)c1cc(NC(=O)Cc2ccccc2Cl)ccc1-n1cc(CC(F)F)cn1 [Example 259, 2-(2-Chlorophenyl)-N-{4-[4-(2,2-difluoroethyl)-1H-pyrazol-1-yl]-3-sulfamoylphenyl}-acetamide]	91	7.30
NS(=O)(=O)c1cc(NC(=O)Cc2ccccc2Cl)ccc1-n1cc(CNCC(F)F)cn1 [Example 260, 2-(2-Chlorophenyl)-N-[4-(4-{[(2,2-difluoroethyl)amino]methyl}-1H-pyrazol-1-yl)-3-sulfamoylphenyl]acetamide]	100	6.40
NS(=O)(=O)c1cc(NC(=O)Cc2ccccc2Cl)ccc1-c1noc(C(F)(F)F)n1 [Example 261, 2-(2-Chlorophenyl)-N-{3-sulfamoyl-4-[5-(trifluoromethyl)-1,2,4-oxadiazol-3-yl]phenyl}acetamide]	81	6.95
Cc1cnn(-c2ccc(NC(=O)Cc3ccccc3F)cc2S(N)(=O)=O)c1 [Example 262, 2-(2-Fluorophenyl)-N-[4-(4-methyl-1H-pyrazol-1-yl)-3-sulfamoylphenyl]acetamide]	92	6.63
NS(=O)(=O)c1cc(NC(=O)Cc2ccccc2F)ccc1-n1cnc(C2CC2)c1 [Example 263, N-[4-(4-Cyclopropyl-1H-imidazol-1-yl)-3-sulfamoylphenyl]-2-(2-fluorophenyl)-acetamide]	96	6.47
NS(=O)(=O)c1cc(NC(=O)Cc2ccccc2F)ccc1-n1ccc(C2CC2)n1 [Example 264, N-[4-(3-Cyclopropyl-1H-pyrazol-1-yl)-3-sulfamoylphenyl]-2-(2-fluorophenyl)-acetamide]	76	5.39
COCCc1cnn(-c2ccc(NC(=O)Cc3ccccc3F)cc2S(N)(=O)=O)c1 [Example 265, 2-(2-Fluorophenyl)-N-{4-[4-(2-methoxyethyl)-1H-pyrazol-1-yl]-3-sulfamoyl-phenyl}acetamide]	84	6.45
NS(=O)(=O)c1cc(NC(=O)Cc2cccc(Cl)c2)ccc1-c1ccccc1 [Example 272, 2-(3-Chlorophenyl)-N-(2-sulfamoylbiphenyl-4-yl)acetamide]	90	6.29
Cc1ccn(-c2ccc(NC(=O)Cc3ccccc3Cl)cc2S(N)(=O)=O)n1 [Example 273, 2-(2-Chlorophenyl)-N-[4-(3-methyl-1H-pyrazol-1-yl)-3-sulfamoylphenyl]acetamide]	60	7.46
Cc1noc(C)c1-c1ccc(NC(=O)Cc2ccccc2Cl)cc1S(N)(=O)=O [Example 275, 2-(2-Chlorophenyl)-N-[4-(3,5-dimethyl-1,2-oxazol-4-yl)-3-sulfamoylphenyl]acetamide]	82	6.29

Other lines, results leading:

Emax [%]	pIC50	SMILES
88	6.09	NS(=O)(=O)c1cc(NC(=O)Cc2ccccc2Cl)ccc1-n1ccc(C2CC2)n1 [Example 252, 2-(2-Chlorophenyl)-N-[4-(3-cyclopropyl-1H-pyrazol-1-yl)-3-sulfamoylphenyl]-acetamide]
94	8.15	NS(=O)(=O)c1cc(NC(=O)Cc2ccccc2Cl)ccc1-c1ccccc1 [Example 266, 2-(2-Chlorophenyl)-N-(2-sulfamoylbiphenyl-4-yl)acetamide]
98	8.70	NS(=O)(=O)c1cc(NC(=O)Cc2ccccc2Cl)ccc1-c1cnn(CC2CC2)c1 [Example 267, 2-(2-Chlorophenyl)-N-{4-[1-(cyclopropylmethyl)-1H-pyrazol-4-yl]-3-sulfamoyl-phenyl}acetamide]
103	8.30	COCCn1cc(-c2ccc(NC(=O)Cc3ccccc3Cl)cc2S(N)(=O)=O)cn1 [Example 268, 2-(2-Chlorophenyl)-N-{4-[1-(2-methoxyethyl)-1H-pyrazol-4-yl]-3-sulfamoylphenyl}-acetamide]
81	5.98	NS(=O)(=O)c1cc(NC(=O)Cc2ccccc2Cl)ccc1-c1cnn(C2CCNCC2)c1 [Example 269, 2-(2-Chlorophenyl)-N-{4-[1-(piperidin-4-yl)-1H-pyrazol-4-yl]-3-sulfamoylphenyl}-acetamide]
51	< 4.60	NS(=O)(=O)c1cc(NC(=O)Cc2ccccc2F)ccc1-c1cnn(C2CCNCC2)c1 [Example 270, 2-(2-Fluorophenyl)-N-{4-[1-(piperidin-4-yl)-1H-pyrazol-4-yl]-3-sulfamoylphenyl}acetamide]
82	5.94	NS(=O)(=O)c1cc(NC(=O)Cc2ccccc2Cl)ccc1-c1cnn(C2CNC2)c1 [Example 271, N-{4-[1-(Azetidin-3-yl)-1H-pyrazol-4-yl]-3-sulfamoylphenyl}-2-(2-chlorophenyl)-acetamide]
97	7.72	NS(=O)(=O)c1cc(NC(=O)Cc2ccccc2Cl)ccc1-c1ccc(Cl)nc1 [Example 274, 2-(2-Chlorophenyl)-N-[4-(6-chloropyridin-3-yl)-3-sulfamoylphenyl]acetamide]
96	6.71	CC1(Cn2cc(-c3ccc(NC(=O)Cc4ccccc4Cl)cc3S(N)(=O)=O)cn2)COC1 [Example 276, 2-(2-Chlorophenyl)-N-(4-{1-[(3-methyloxetan-3-yl)methyl]-1H-pyrazol-4-yl}-3-sulfamoylphenyl)acetamide]
90	6.73	COCCn1cc(-c2ccc(NC(=O)Cc3ccc(F)cc3Cl)cc2S(N)(=O)=O)cn1 [Example 277, 2-(2-Chloro-4-fluorophenyl)-N-{4-[1-(2-methoxyethyl)-1H-pyrazol-4-yl]-3-sulfamoyl-phenyl}acetamide]
102	7.03	NS(=O)(=O)c1cc(NC(=O)Cc2ccc(F)cc2Cl)ccc1-c1cnn(C2CC2)c1 [Example 278, 2-(2-Chloro-4-fluorophenyl)-N-[4-(1-cyclopropyl-1H-pyrazol-4-yl)-3-sulfamoyl-phenyl]acetamide]
96	7.21	NS(=O)(=O)c1cc(NC(=O)Cc2ccccc2Cl)ccc1-c1cnn(CCOC(F)(F)F)c1 [Example 279, 2-(2-Chlorophenyl)-N-(3-sulfamoyl-4-{1-[2-(trifluoromethoxy)ethyl]-1H-pyrazol-4-yl}phenyl)acetamide]
101	7.22	NS(=O)(=O)c1cc(NC(=O)Cc2ccccc2Cl)ccc1-c1cnn(C2CCC2)c1 [Example 280, 2-(2-Chlorophenyl)-N-[4-(1-cyclobutyl-1H-pyrazol-4-yl)-3-sulfamoylphenyl]acetamide]
76	6.32	NS(=O)(=O)c1cc(NC(=O)Cc2ccccc2Cl)ccc1-c1cnn(CCN2CCCC2)c1 [Example 281, 2-(2-Chlorophenyl)-N-(4-{1-[2-(pyrrolidin-1-yl)ethyl]-1H-pyrazol-4-yl}-3-sulfamoyl-phenyl)acetamide]
80	7.25	N#Cc1cncc(-c2ccc(NC(=O)Cc3ccccc3Cl)cc2S(N)(=O)=O)c1 [Example 282, 2-(2-Chlorophenyl)-N-[4-(5-cyanopyridin-3-yl)-3-sulfamoylphenyl]acetamide]
94	7.22	NS(=O)(=O)c1cc(NC(=O)Cc2ccccc2Cl)ccc1-c1cnn(CC2CCO2)c1 (stereo not shown) [Example 283, 2-(2-Chlorophenyl)-N-(4-{1-[oxetan-2-ylmethyl]-1H-pyrazol-4-yl}-3-sulfamoylphenyl)-acetamide]

Source: patent US11524938B2, “Aromatic sulfonamide derivatives” (Bayer Pharma Aktiengesellschaft, priority 2016, dated 2022)
